The values below come from ChEMBL document CHEMBL1127015, “Centrally acting serotonergic and dopaminergic agents. 1. Synthesis and structure-activity relationships of 2,3,3a,4,5,9b-hexahydro-1H-benz[e]indole derivatives” (J Med Chem, 1993).

The target in assay [1] is T1, D(2) dopamine receptor (Homo sapiens, UniProt P14416). Kind of assay: Binding affinity against [3H]U-86,170-labeled dopamine receptor D2 in cloned CHO cells. Type of assay: cell-based.
Assay [2] deals with Mus musculus. Kind of assay: Antagonism of apomorphine for 10-20 minutes in reserpinized mice when a dose of 38 micro mol/kg is administered intraperitoneally. The assay is classed as functional.
The test system of assay [3] is Mus musculus. The assay can be described thus: Antagonism of apomorphine for 0-10 minutes in reserpinized mice when a dose of 3.8 micro mol/kg is administered intraperitoneally. The assay is classed as functional.
Assay [4] is filed under the species Rattus norvegicus. Kind of assay: Effect on the synthesis rates of serotonin (5-HTP accumulation) in the rat ventral limbic brain region at 3.8uMkg. The assay is classed as functional, Limbic system.
Assay [5] concerns Mus musculus. Kind of assay: Ability to stimulate dopaminergic systems by effect on locomotor activity in reserpinized mice when a dose of 3.8 micro mol/kg is administered intraperitoneally. The assay is classed as functional.
Assay [6] concerns Mus musculus. Kind of assay: Antagonism of apomorphine for 10-20 minutes in reserpinized mice when a dose of 3.8 micro mol/kg is administered intraperitoneally. Type of assay: functional.
The test system of assay [7] is Mus musculus. The assay can be described thus: Antagonism of apomorphine for 0-10 minutes in reserpinized mice when a dose of 38 micro mol/kg is administered intraperitoneally. Type of assay: functional.
Assay [8] concerns Mus musculus. The assay can be described thus: Increase in locomotor activity in reserpinized mice following 0.4 umol/kg i.p. Type of assay: functional.
Assay [9] concerns Mus musculus. Kind of assay: Ability to stimulate dopaminergic systems by effect on locomotor activity in reserpinized mice when a dose of 38 micro mol/kg is administered intraperitoneally. Type of assay: functional.
Assay [10] concerns Mus musculus. Kind of assay: Antagonism of apomorphine effects in reserpinized mice following 0.4 umol/kg i.p. Type of assay: functional.
Assay [11] has as its system Mus musculus. The assay can be described thus: Antagonism of apomorphine effects for 0-10 minutes in reserpinized mice following 0.4 umol/kg i.p. Set-up: unit not given beside the values. The assay is classed as functional.
The species entered for assay [12] is Rattus norvegicus. The assay can be described thus: Effect on the synthesis rates of serotonin (5-HTP accumulation) in the rat ventral limbic brain region at 3.8uMkg. The assay is classed as functional, Limbic system.
In assay [13] the target is T1, D(2) dopamine receptor. The assay can be described thus: Intrinsic activity from GTP shift using membranes from CHO cells transfected with mammalian dopamine receptor D2. Type of assay: cell membranes.
The test system of assay [14] is Mus musculus. The assay can be described thus: Antagonism of apomorphine in reserpinized mice when a dose of 3.8 micro mol/kg is administered intraperitoneally. The assay is classed as functional.
For assay [15], the target named is T2, D(2) dopamine receptor (Rattus norvegicus, UniProt P61169). Kind of assay: Binding affinity against [3H]raclopride-labeled dopamine receptor D2 in rat striatum. The assay is classed as tissue-based.
In assay [16] the test system is Mus musculus. The assay can be described thus: Antagonism of apomorphine effects for 10-20 minutes in reserpinized mice following 0.4 umol/kg i.p. Type of assay: functional.
The test system of assay [17] is Mus musculus. Kind of assay: Antagonism of apomorphine in reserpinized mice when a dose of 38 micro mol/kg is administered intraperitoneally. Type of assay: functional.
Assay [18] deals with Rattus norvegicus. The assay can be described thus: Inhibition of firing rates of dopaminergic neurons in the substantia nigra pars compacta by intravenous injection in rats. Type of assay: functional. Conditions: Rattus norvegicus, Substantia nigra pars compacta, iv; read-out: ED50.
Assay [19] deals with Mus musculus. Kind of assay: Maximum decrease in temperature when compound is administered subcutaneously. Type of assay: functional.
In assay [20] the test system is Mus musculus. Kind of assay: Effective dose on hypothermia in mouse when administered subcutaneously. The assay is classed as functional. Conditions: sc.
In assay [21] the target is T2, D(2) dopamine receptor. The assay can be described thus: (§1) Compound was evaluated for the binding affinity against [3H]U-86,170-labeled dopamine receptor D2 in cloned CHO cells. Type of assay: cell-based.
Assay [22] concerns Mus musculus. Kind of assay: Time of effect in the face-to-face behavioral assay in the mouse when a dose of 0.0 micro mol/kg is administered perorally. The assay is classed as functional.
Assay [23] deals with Mus musculus. The assay can be described thus: Time of effect in the isolation-induced aggression behavioral assay in the mouse when a dose of 0.0 micro mol/kg is administered perorally. Type of assay: functional.
Assay [24] relates to Mus musculus. Kind of assay: Time of effect in the face-to-face behavioral assay in the mouse when a dose of 0.4 micro mol/kg is administered perorally. Type of assay: functional.
The test system of assay [25] is Mus musculus. Kind of assay: Ability to stimulate dopaminergic systems by effect on locomotor activity in reserpinized mice when a dose of 36 micro mol/kg is administered intraperitoneally. Type of assay: functional.
The subject of assay [26] is Mus musculus. Kind of assay: Time of effect in the face-to-face behavioral assay in the mouse when a dose of 36 micro mol/kg is administered perorally. Type of assay: functional.
The test system of assay [27] is Mus musculus. The assay can be described thus: Time of effect in the isolation-induced aggression behavioral assay in the mouse when a dose of 36 micro mol/kg is administered perorally. The assay is classed as functional.
The subject of assay [28] is Mus musculus. The assay can be described thus: Antagonism of apomorphine in reserpinized mice when a dose of 36 micro mol/kg is administered intraperitoneally. The assay is classed as functional.
The subject of assay [29] is Mus musculus. The assay can be described thus: Antagonism of apomorphine for 10-20 minutes in reserpinized mice when a dose of 36 micro mol/kg is administered intraperitoneally. Type of assay: functional.
Assay [30] deals with Mus musculus. The assay can be described thus: Antagonism of apomorphine for 10-20 minutes in reserpinized mice when a dose of 3.6 micro mol/kg is administered intraperitoneally. The assay is classed as functional.
The subject of assay [31] is Mus musculus. Kind of assay: Antagonism of apomorphine in reserpinized mice when a dose of 3.6 micro mol/kg is administered intraperitoneally. The assay is classed as functional.
Assay [32] concerns Mus musculus. The assay can be described thus: Time of effect in the face-to-face behavioral assay in the mouse when a dose of 3.6 micro mol/kg is administered perorally. The assay is classed as functional.
For assay [33], the system named is Mus musculus. The assay can be described thus: Ability to stimulate dopaminergic systems by effect on locomotor activity in reserpinized mice when a dose of 3.6 micro mol/kg is administered intraperitoneally. Type of assay: functional.
In assay [34] the test system is Mus musculus. The assay can be described thus: Antagonism of apomorphine for 0-10 minutes in reserpinized mice when a dose of 3.6 micro mol/kg is administered intraperitoneally. The assay is classed as functional.
In assay [35] the test system is Mus musculus. The assay can be described thus: Antagonism of apomorphine for 0-10 minutes in reserpinized mice when a dose of 36 micro mol/kg is administered intraperitoneally. Type of assay: functional.
The target of assay [36] is T1, D(2) dopamine receptor. The assay is described as §1. The assay is classed as cell-based.

T1 sequence (P14416 whole entry): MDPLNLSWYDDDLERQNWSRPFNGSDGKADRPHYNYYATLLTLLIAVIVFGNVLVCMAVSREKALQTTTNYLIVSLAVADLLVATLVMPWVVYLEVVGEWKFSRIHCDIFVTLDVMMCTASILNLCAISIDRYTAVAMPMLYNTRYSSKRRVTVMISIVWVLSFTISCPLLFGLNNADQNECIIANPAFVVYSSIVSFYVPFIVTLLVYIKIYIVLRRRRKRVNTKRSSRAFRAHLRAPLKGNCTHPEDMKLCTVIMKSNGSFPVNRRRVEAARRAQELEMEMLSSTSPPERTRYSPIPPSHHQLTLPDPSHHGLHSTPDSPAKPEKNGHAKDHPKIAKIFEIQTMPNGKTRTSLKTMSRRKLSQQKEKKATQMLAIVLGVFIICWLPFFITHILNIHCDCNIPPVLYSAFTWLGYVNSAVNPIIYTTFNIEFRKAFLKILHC
T2 sequence (P61169 whole entry): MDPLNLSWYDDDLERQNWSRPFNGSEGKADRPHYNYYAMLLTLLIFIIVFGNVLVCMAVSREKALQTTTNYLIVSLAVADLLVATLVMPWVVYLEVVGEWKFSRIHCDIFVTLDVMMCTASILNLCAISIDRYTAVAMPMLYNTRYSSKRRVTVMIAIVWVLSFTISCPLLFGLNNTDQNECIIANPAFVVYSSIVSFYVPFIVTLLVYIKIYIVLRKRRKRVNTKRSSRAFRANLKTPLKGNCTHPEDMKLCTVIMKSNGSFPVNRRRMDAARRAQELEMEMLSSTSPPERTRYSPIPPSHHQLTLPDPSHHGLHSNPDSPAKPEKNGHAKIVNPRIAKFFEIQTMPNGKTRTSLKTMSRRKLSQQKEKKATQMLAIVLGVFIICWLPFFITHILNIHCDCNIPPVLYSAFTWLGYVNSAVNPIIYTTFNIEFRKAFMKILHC

For `C=CCN1CCC2c3cccc(O)c3CC[C@H]21` (single isomer, unassigned; (-)), the inhibitory constant (Ki) (usually the equilibrium dissociation constant of an inhibitor or competing ligand from its target) in assay [1] came to 108 nM; in [15], 49 nM. Further, the Locomotor activity is given as 23 in [2]; 97 in assay [3]; 8 in assay [5]; 115 in assay [6]; 22 in [7]; 73 in assay [8]. Also, the Locomotor activity in assay [9] is reported as 3; in assay [10], 54; in assay [11] it was 110; in [14], 62; in assay [16] it was 105; in assay [17], 7. Also, the values for the Control in [4] and in assay [12] were 45% and -0.3%, respectively. Also, the Intrinsic activity in [13] is 22%.

For `C=CCN1CC[C@@H]2c3cccc(O)c3CC[C@H]21` (racemic), the affinity in [1], expressed as Ki, was 4.1 nM. For the same compound, the Locomotor activity in assay [2] came to 8; in [3], 29; in [5], 4; in [6] it was 82; in assay [7] it was 5; in assay [8] it was 12. The Locomotor activity is reported as 53 in [9]; 109 in [10]; 65 in assay [11]; 67 in assay [14]; 83 in assay [16]; 6 in [17]. Moreover, the Control was 73% in [4] and -12% in [12]. Besides, the ED50 (commonly the dose at which the effect has come halfway, by size or by number of responders) in assay [18] was found to be 0.97 µmol/kg; in assay [20] it was 113 µmol/kg. Besides, the Intrinsic activity in assay [13] was determined as 44%. For the same compound, the Max temperature decrease in assay [19] turned out to be 2.1.

Consider `C=CCN1CC[C@H]2c3c(O)cccc3CC[C@H]21` (racemic), for which the Locomotor activity in [2] is 69; in [3], 78; in assay [5], 63; in assay [6], 68; in assay [7], 54; in assay [8] it was 135. In addition, the Locomotor activity is reported as 32 in assay [9]; 46 in [10]; 56 in [11]; 8 in [14]; 62 in assay [16]; 11 in assay [17]. Moreover, the Ki in [21] came to 153 nM.

For the compound `C=CCN1CCC2c3c(cccc3OC)CC[C@@H]21` (single isomer, unassigned; (+)), the Time in assay [22] worked out at 0.8 s; in [23], 27 s; in [24] it was 0.9 s; in assay [26], 1 s; in assay [27], 21 s; in [32], 0.6 s. For the same compound, the Locomotor activity in assay [25] was 18; in assay [28] it was 115; in [29] it was 67; in [8], 8; in assay [30] it was 77; in assay [10], 103. For the same compound, the Locomotor activity is reported as 83 in assay [11]; 114 in assay [31]; 12 in assay [33]; 92 in [16]; 73 in [34]; 54 in assay [35]. The Intrinsic activity in [13] was determined as 17%. In assay [19], this compound gave a Max temperature decrease of 3.9. The same compound yielded an ED50 in assay [20] of 62 µmol/kg.

As for `COc1cccc2c1C1CCN(CCc3ccccc3)[C@H]1CC2` (stereo partly specified), in assay [36], the affinity corresponds to a Ki of 392 nM.
